Measured values reported in patent publication US20260042764A1, “COMPOSITIONS AND METHODS FOR INHIBITION OF KRAS” (TheRas, Inc., priority 2022, published 2026).

Columns and labels:
[1] = molecular target: T1, Avi-KRAS G12D (1-169) GppNHp/RAF1 RBD-3xFLAG (52-151) (Homo sapiens, UniProt P01116, G12D); assay: Raf1-KRAS G12D-GppNHP disruption HTRF assay (Biological Example 1); format: binding
T1 construct: Avi-KRAS G12D (1-169)
Method in brief: (§1)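 Read-out is HTRF signal of the KRAS–RAF1 RBD complex, reported as percentage of activity relative to DMSO (100%). Protein mix and detection reagents each incubated 1 h at room temperature with 700 rpm shaking. Buffer: 50 mM Tris pH 7.5, 100 mM NaCl, 5 mM MgCl2, 0.1% BSA, 0.01% Tween, 10% DMSO.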

[2] = molecular target: T2, Avi-KRAS G12R (1-169) GppNHp/RAF1 RBD-3xFLAG (52-151) (Homo sapiens, UniProt P01116, G12R); assay: Raf1-KRAS G12R-GppNHP disruption HTRF assay (Biological Example 1); format: binding
T2 construct: Avi-KRAS G12R (1-169)
T2 sequence (P01116 1-169 isoform P01116-2 G12R): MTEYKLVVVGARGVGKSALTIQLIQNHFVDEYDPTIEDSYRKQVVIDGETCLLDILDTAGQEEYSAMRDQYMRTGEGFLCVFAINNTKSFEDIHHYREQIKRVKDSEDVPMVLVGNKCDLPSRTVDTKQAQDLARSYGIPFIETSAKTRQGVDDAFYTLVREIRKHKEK
Method in brief: as §1

[3] = molecular target: T3, Avi-KRAS G12V (1-169) GppNHp/RAF1 RBD-3xFLAG (52-151) (Homo sapiens, UniProt P01116, G12V); assay: Raf1-KRAS G12V-GppNHP disruption HTRF assay (Biological Example 1); format: binding
T3 construct: Avi-KRAS G12V (1-169)
T3 sequence (P01116 1-169 isoform P01116-2 G12V): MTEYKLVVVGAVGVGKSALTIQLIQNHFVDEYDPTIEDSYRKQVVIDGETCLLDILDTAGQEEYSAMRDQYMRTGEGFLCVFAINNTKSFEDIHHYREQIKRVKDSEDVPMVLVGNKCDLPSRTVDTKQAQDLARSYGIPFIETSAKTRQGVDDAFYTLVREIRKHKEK
Method in brief: as §1

[4] = molecular target: T4, Avi-KRAS WT (1-169) GppNHp/RAF1 RBD-3xFLAG (52-151) (Homo sapiens, UniProt P01116); assay: Raf1-KRAS WT-GppNHP disruption HTRF assay (Biological Example 1); format: binding
T4 construct: Avi-KRAS WT (1-169)
T4 sequence (P01116 1-169 isoform P01116-2): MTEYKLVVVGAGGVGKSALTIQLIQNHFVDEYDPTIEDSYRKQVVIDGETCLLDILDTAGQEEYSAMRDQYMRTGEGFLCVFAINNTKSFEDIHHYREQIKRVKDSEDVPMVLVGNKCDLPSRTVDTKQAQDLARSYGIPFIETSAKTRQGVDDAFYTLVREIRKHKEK
Method in brief: as §1

[5] = system: GP2d cells (KRAS G12D); assay: Cell-based pERK HTRF assay in GP2d cell (Biological Example 2); details: GP2d, GP2d (KRAS G12D) cells, pERK HTRF
Method in brief: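 GP2d (KRAS G12D) cells were plated in DMEM/10% FBS and treated the next day for 60 min with compounds. Dosing used 9-point half-log series starting at 1 μM or 100 nM in 0.25% DMSO. Lysates were read by HTRF pERK (d2/Eu cryptate antibodies) after 4–24 h at room temperature, with excitation at 320 nm and emission at 615 nm.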

[6] = system: SW620 cells (KRAS G12V); assay: Cell-based pERK HTRF assay in SW620 cell (Biological Example 4); details: Homo sapiens, SW-620, SW620 (KRAS G12V) cells, pERK HTRF
Method in brief: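 SW620 seeded in RPMI/10% FBS, next day dosed 4 h (top 1 μM, half-log, 9 pts, 0.25% DMSO). Lysed, pERK by d2/Eu cryptate HTRF, 4–24 h RT, 615 nm read.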

[7] = KRAS G12D, GppNHp-loaded, class symbols
[8] = KRAS G12R, GppNHp-loaded, class symbols
[9] = KRAS G12V, GppNHp-loaded, class symbols
[10] = KRAS WT, GppNHp-loaded, class symbols
[11] = KRAS G12D, GppNHp-loaded, Table 11
[12] = KRAS G12R, GppNHp-loaded, Table 11
[13] = KRAS G12V, GppNHp-loaded, Table 11
[14] = KRAS WT, GppNHp-loaded, Table 11

T1 sequence (P01116 1-169 isoform P01116-2 G12D): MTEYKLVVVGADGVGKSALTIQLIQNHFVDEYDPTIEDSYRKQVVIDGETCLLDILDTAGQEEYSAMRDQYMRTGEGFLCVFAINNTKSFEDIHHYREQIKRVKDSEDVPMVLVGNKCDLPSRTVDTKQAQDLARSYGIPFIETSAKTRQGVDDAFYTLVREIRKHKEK

SMILES | IC50 ([1]; KRAS G12D-GppNHp/RAF1 RBD HTRF) [nM] | IC50 ([2]; KRAS G12R-GppNHp/RAF1 RBD HTRF) [nM] | IC50 ([3]; KRAS G12V-GppNHp/RAF1 RBD HTRF) [nM] | IC50 ([4]; KRAS WT-GppNHp/RAF1 RBD HTRF) [nM] | IC50 [5] [nM] | IC50 [6] [nM] | IC50 [1, 7] [nM] | IC50 [2, 8] [nM] | IC50 [3, 9] [nM] | IC50 [4, 10] [nM] | IC50 ([5]; class symbols) [nM] | IC50 ([6]; class symbols) [nM] | IC50 [1, 11] [nM] | IC50 [2, 12] [nM] | IC50 [3, 13] [nM] | IC50 [4, 14] [nM]
CC(=O)N1CCC2[C@H]1CCCN2c1nc(OC[C@@]23CCCN2C[C@H](F)C3)nc2c(F)c(-c3ccc(F)c4sc(N)c(C#N)c34)c(C(F)(F)F)cc12 (stereo partly drawn) [Compound 304] | 1000 to 10000 | 1000 to 10000 | 1000 to 10000 | 100 to 1000 | < 100 | 100 to 1000 |  |  |  |  |  |  |  |  |  | 
CCC(=O)N1CC[C@@H](N(C)c2nc(OC[C@@]34CCCN3C[C@H](F)C4)nc3c(F)c(-c4ccc(F)c5sc(N)c(C#N)c45)c(C(F)(F)F)cc23)[C@H]1CC [Compound 432] | 1000 to 10000 | 100 to 1000 | 1000 to 10000 | 100 to 1000 | < 100 | 100 to 1000 |  |  |  |  |  |  |  |  |  | 
C[C@H]1C[C@H](O)CCN1c1nc(OC[C@@]23CCCN2C[C@H](F)C3)nc2c(F)c(-c3ccc(F)c4sc(N)c(C#N)c34)c(C(F)(F)F)cc12 [Compound 246] |  |  |  |  | < 100 | < 100 |  |  |  |  |  |  | 100 to 1000 | 100 to 1000 | 100 to 1000 | 100 to 1000
CC(=O)N1C[C@@H](N(C)c2nc(OC[C@@]34CCCN3C[C@H](F)C4)nc3c(F)c(-c4ccc(F)c5sc(N)c(C#N)c45)c(C(F)(F)F)cc23)[C@@H](F)C1 [Compound 187] |  |  |  |  | < 100 | < 100 |  |  |  |  |  |  | < 100 | 100 to 1000 | 100 to 1000 | 100 to 1000
CCN(c1nc(OC[C@@]23CCCN2C[C@H](F)C3)nc2c(F)c(-c3ccc(F)c4sc(N)c(C#N)c34)c(C(F)(F)F)cc12)C1CCN(C(=O)N2C3COCC2C3)C1 (stereo partly drawn) [Compound 652] |  |  |  |  |  |  | < 100 | < 100 | < 100 | < 100 | < 100 | < 100 |  |  |  | 
N#Cc1c(N)sc2c(F)ccc(-c3c(C(F)(F)F)cc4c(N5CC6COC[C@H]6C5)nc(OC[C@@]56CCCN5C[C@H](F)C6)nc4c3F)c12 (stereo partly drawn) [Compound 293] | 100 to 1000 | 100 to 1000 | 1000 to 10000 | 100 to 1000 | < 100 | < 100 |  |  |  |  |  |  |  |  |  | 
N#Cc1c(N)sc2c(F)ccc(-c3c(C(F)(F)F)cc4c(N5CCNC(=O)CC5)nc(OC[C@@]56CCCN5C[C@H](F)C6)nc4c3F)c12 [Compound 251] |  |  |  |  | < 100 | 100 to 1000 |  |  |  |  |  |  | 100 to 1000 | 100 to 1000 | 100 to 1000 | 100 to 1000
CN(C)C(=O)c1cn2c(n1)CN(c1nc(OC[C@@]34CCCN3C[C@H](F)C4)nc3c(F)c(-c4ccc(F)c5sc(N)c(C#N)c45)c(C(F)(F)F)cc13)CC2 [Compound 419] | 100 to 1000 | 100 to 1000 | 100 to 1000 | 100 to 1000 | < 100 | < 100 |  |  |  |  |  |  |  |  |  | 
CC(=O)N1C[C@H]2CCCN(c3nc(OC[C@@]45CCCN4C[C@H](F)C5)nc4c(F)c(-c5ccc(F)c6sc(N)c(C#N)c56)c(C(F)(F)F)cc34)[C@H]2C1 [Compound 453] | 1000 to 10000 | 1000 to 10000 | 1000 to 10000 | 1000 to 10000 | < 100 | < 100 |  |  |  |  |  |  |  |  |  | 

More lines, now with the values ahead:

IC50 ([1]; KRAS G12D-GppNHp/RAF1 RBD HTRF) [nM] | IC50 ([2]; KRAS G12R-GppNHp/RAF1 RBD HTRF) [nM] | IC50 ([3]; KRAS G12V-GppNHp/RAF1 RBD HTRF) [nM] | IC50 ([4]; KRAS WT-GppNHp/RAF1 RBD HTRF) [nM] | IC50 [5] [nM] | IC50 [6] [nM] | IC50 [1, 7] [nM] | IC50 [2, 8] [nM] | IC50 [3, 9] [nM] | IC50 [4, 10] [nM] | IC50 ([5]; class symbols) [nM] | IC50 ([6]; class symbols) [nM] | IC50 [1, 11] [nM] | IC50 [2, 12] [nM] | IC50 [3, 13] [nM] | IC50 [4, 14] [nM] | SMILES
100 to 1000 | 100 to 1000 | 100 to 1000 | 100 to 1000 | < 100 | < 100 |  |  |  |  |  |  |  |  |  |  | CCN(c1nc(OC[C@@]23CCCN2C[C@H](F)C3)nc2c(F)c(-c3ccc(F)c4sc(N)c(C#N)c34)c(C(F)(F)F)cc12)[C@@H]1C[C@@H](C)N(C(=O)OC)C1 (atropisomer, axis not shown) [Compound 526]
 |  |  |  |  |  | < 100 | < 100 | < 100 | < 100 | < 100 | < 100 |  |  |  |  | CCN(c1nc(OC[C@@]23CCCN2C[C@H](F)C3)nc2c(F)c(-c3ccc(F)c4sc(N)c(C#N)c34)c(C(F)(F)F)cc12)[C@H]1CCN(C(=O)N2CC3(CC3)C2)C1 (atropisomer, axis not shown) [Compound 793]
 |  |  |  |  |  | < 100 | < 100 | < 100 | < 100 | < 100 | < 100 |  |  |  |  | CCN(c1nc(OC[C@@]23CCCN2C[C@H](F)C3)nc2c(F)c(-c3ccc(F)c4sc(N)c(C#N)c34)c(C(F)(F)F)cc12)[C@H]1CCN(C(=O)N2CC(OC(F)F)C2)C1 (atropisomer, axis not shown) [Compound 794]
100 to 1000 | 100 to 1000 | 100 to 1000 | 100 to 1000 | < 100 | < 100 |  |  |  |  |  |  |  |  |  |  | CCN(c1nc(OC[C@@]23CCCN2C[C@H](F)C3)nc2c(F)c(-c3ccc(F)c4sc(N)c(C#N)c34)c(C(F)(F)F)cc12)[C@@H]1CCN(C(=O)OC)[C@@H]1C [Compound 489]
 |  |  |  |  |  | < 100 | < 100 | < 100 | < 100 | < 100 | < 100 |  |  |  |  | CCN(c1nc(OC[C@@]23CCCN2C[C@H](F)C3)nc2c(F)c(-c3ccc(F)c4sc(N)c(C#N)c34)c(C(F)(F)F)cc12)[C@H]1CCN(C(=O)OC2CN(C(C)=O)C2)C1 (atropisomer, axis not shown) [Compound 721]
 |  |  |  |  |  | < 100 | < 100 | < 100 | < 100 | < 100 | < 100 |  |  |  |  | CCN(c1nc(OC[C@@]23CCCN2C[C@H](F)C3)nc2c(F)c(-c3ccc(F)c4sc(N)c(C#N)c34)c(C(F)(F)F)cc12)[C@H]1CCN(C(=O)c2cocn2)C1 (atropisomer, axis not shown) [Compound 719]
 |  |  |  |  |  | 100 to 1000 | 100 to 1000 | 100 to 1000 | 100 to 1000 | < 100 | < 100 |  |  |  |  | CCN(c1nc(OC[C@@]23CCCN2C[C@H](F)C3)nc2c(F)c(-c3ccc(F)c4sc(N)c(C#N)c34)c(C(F)(F)F)cc12)[C@@H]1C[C@@H](C)N(C(=O)C2COC2)C1 (atropisomer, axis not shown) [Compound 629]
1000 to 10000 | > 10000 | > 10000 | > 10000 | < 100 | < 100 |  |  |  |  |  |  |  |  |  |  | N#Cc1c(N)sc2c(F)ccc(-c3c(C(F)(F)F)cc4c(N5CCn6nc(C7CC7)cc6C5)nc(OC[C@@]56CCCN5C[C@H](F)C6)nc4c3F)c12 [Compound 483]
 |  |  |  |  |  | < 100 | < 100 | < 100 | < 100 | < 100 | < 100 |  |  |  |  | CCN(c1nc(OC[C@@]23CCCN2C[C@H](F)C3)nc2c(F)c(-c3ccc(F)c4sc(N)c(C#N)c34)c(C(F)(F)F)cc12)[C@H]1CCN(C(=O)O[C@H]2CCOC2)C1 (atropisomer, axis not shown) [Compound 682]
